This note sets out measurements from ChEMBL document CHEMBL4765451, “The one-pot synthesis of butyl-1H-indol-3-alkylcarboxylic acid derivatives in ionic liquid as potent dual-acting agent for management of BPH” (Eur J Med Chem, 2020).

pIC50: −log10 of the molar value. Where only a bound is given, the exact number is not on record here.

A word on the pIC50: it is the negative decadic logarithm of the IC50, by convention in mol/L. In general, AUC(0-inf) refers to total exposure, with the tail of the curve extrapolated. Higher therefore signals high exposure. Usually bioavailability stands for the share of a dose that reaches the circulation, judged against a reference dose that is usually intravenous. Higher therefore signals good availability. A word on the MRT: it is a mean duration of stay, worked out from the concentration-time curve. As usually defined, the half-life is the time needed for the level to fall by half in the phase considered. A higher half-life goes with slow decline. For orientation: Cmax means the peak of the concentration-time curve. Usually AUC(0-t) stands for the area under the concentration-time curve up to a stated or last time point. Read a low AUC(0-t) as less exposure. The Tmax is the time at which the peak concentration occurs.

The target in data set [1] is T1, Alpha-1D adrenergic receptor (Homo sapiens, UniProt P25100).
T1 sequence (P25100 whole entry): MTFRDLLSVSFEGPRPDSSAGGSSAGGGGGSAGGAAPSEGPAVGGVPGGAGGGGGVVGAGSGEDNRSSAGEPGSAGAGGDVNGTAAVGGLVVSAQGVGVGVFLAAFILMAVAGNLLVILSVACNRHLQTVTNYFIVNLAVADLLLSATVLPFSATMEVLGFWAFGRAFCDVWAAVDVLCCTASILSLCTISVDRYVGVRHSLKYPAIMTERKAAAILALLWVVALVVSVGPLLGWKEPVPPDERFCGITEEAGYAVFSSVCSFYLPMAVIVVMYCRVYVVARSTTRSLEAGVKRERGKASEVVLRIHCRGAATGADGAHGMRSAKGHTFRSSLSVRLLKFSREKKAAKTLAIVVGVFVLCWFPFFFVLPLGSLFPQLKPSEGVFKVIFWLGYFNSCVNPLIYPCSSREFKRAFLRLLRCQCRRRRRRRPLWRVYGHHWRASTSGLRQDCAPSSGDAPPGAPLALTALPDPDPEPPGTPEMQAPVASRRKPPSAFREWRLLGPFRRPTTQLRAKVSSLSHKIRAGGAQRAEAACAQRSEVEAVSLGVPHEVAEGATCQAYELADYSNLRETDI
Nature of the data set: Antagonist activity at human alpha1D receptor transfected in HEK293 cells co-transfected with Galpha16 assessed as reduction in intracellular calcium release incubated for 40 mins by Fluo-4AM dye based fluorescence assay. It is filed as functional, cell-based. On the technique in general: Calcium flux is commonly read through the fluorescence of an indicator in the cells.

Data set [2] has as its target T2, Alpha-1B adrenergic receptor (Homo sapiens, UniProt P35368).
T2 sequence (P35368 whole entry): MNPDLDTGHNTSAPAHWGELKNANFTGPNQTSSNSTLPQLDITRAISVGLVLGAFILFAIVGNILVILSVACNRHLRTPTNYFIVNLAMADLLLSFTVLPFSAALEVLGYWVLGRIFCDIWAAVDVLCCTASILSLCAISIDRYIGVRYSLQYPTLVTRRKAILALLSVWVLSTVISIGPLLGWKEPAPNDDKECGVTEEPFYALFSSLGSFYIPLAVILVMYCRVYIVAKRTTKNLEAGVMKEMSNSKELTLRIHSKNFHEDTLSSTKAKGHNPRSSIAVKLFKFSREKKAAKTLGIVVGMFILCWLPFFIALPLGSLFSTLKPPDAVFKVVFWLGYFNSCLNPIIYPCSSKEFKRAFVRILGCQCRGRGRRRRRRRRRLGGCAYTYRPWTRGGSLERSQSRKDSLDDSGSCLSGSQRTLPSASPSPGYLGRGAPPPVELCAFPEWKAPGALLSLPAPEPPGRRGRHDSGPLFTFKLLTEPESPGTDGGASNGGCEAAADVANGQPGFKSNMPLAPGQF
In words: Antagonist activity at human alpha1B receptor transfected in HEK293 cells co-transfected with Galpha16 assessed as reduction in intracellular calcium release incubated for 40 mins by Fluo-4AM dye based fluorescence assay. The data set is classed as functional, cell-based.

Data set [3] concerns the target T3, Alpha-1A adrenergic receptor (Homo sapiens, UniProt P35348).
T3 sequence (P35348 whole entry): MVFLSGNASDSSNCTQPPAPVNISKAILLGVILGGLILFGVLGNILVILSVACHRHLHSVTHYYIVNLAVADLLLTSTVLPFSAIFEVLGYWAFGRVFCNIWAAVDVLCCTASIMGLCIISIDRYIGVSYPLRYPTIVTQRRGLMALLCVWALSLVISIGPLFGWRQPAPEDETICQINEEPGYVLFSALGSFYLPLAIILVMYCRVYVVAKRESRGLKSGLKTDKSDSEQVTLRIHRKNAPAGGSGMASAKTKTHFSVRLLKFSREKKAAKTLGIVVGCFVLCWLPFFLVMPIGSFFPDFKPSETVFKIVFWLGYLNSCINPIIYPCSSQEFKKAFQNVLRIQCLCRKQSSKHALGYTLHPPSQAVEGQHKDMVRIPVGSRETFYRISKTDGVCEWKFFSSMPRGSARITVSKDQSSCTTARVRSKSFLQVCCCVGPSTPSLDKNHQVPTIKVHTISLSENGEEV
Nature of the data set: Antagonist activity at human alpha1A receptor transfected in HEK293 cells co-transfected with Galpha16 assessed as reduction in intracellular calcium release incubated for 40 mins by Fluo-4AM dye based fluorescence assay. The data set is classed as functional, cell-based.

The nature of data set [4]: Inhibition of 5-alpha reductase in rat liver microsomes assessed as inhibition of DHT formation using testosterone as substrate incubated for 10 mins by NADPH assay.
Data set [5] is described as follows: AUC (0 to infinity) in Sprague-Dawley rat at 2 mg/kg, iv. The data set is classed as ADME, organism-based. Further details: time infinity, route intravenous, dose 2 mg/kg. To be noted: in vivo.
Data set [6] in a line: Bioavailability in Sprague-Dawley rat at 20 mg/kg, ip. It is filed as ADME, organism-based. To be noted: in vivo.
Data set [7] in a line: MRT in Sprague-Dawley rat at 2 mg/kg, iv. It is filed as ADME, organism-based. To be noted: in vivo.
Data set [8] in a line: AUC (0 to infinity) in Sprague-Dawley rat at 20 mg/kg, ip. The data set is classed as ADME, organism-based. Also noted: time infinity, route intraperitoneal, dose 20 mg/kg. To be noted: in vivo.
Data set [9] can be described thus: Half life in Sprague-Dawley rat at 20 mg/kg, ip. To be noted: in vivo. The data set is classed as ADME, organism-based.
A short description of data set [10]: Cmax in Sprague-Dawley rat at 20 mg/kg, ip. To be noted: in vivo. Further details: route intraperitoneal, dose 20 mg/kg. It is filed as ADME, organism-based.
Data set [11] is described as follows: AUC (0 to t) in Sprague-Dawley rat at 20 mg/kg, ip. The data set is classed as ADME, organism-based. To be noted: in vivo. Further details: dose 20 mg/kg.
Data set [12] in a line: MRT in Sprague-Dawley rat at 20 mg/kg, ip. The data set is classed as ADME, organism-based. To be noted: in vivo.
Another data set has as its system Huh-7. In words: Cytotoxicity against human Huh-7 cells assessed as reduction in cell viability at 0.390625 to 100 uM incubated for 72 hrs by MTT assay. It is filed as cell-based. To be noted: huh-7, 72 h, dose 0.390625-100 µM.
A short description of data set [13]: AUC (0 to t) in Sprague-Dawley rat at 2 mg/kg, iv. It is filed as ADME, organism-based. Also noted: dose 2 mg/kg. To be noted: in vivo.
The nature of data set [14]: Tmax in Sprague-Dawley rat at 20 mg/kg, ip. The data set is classed as ADME, organism-based. To be noted: in vivo.
The nature of data set [15]: Half life in Sprague-Dawley rat at 2 mg/kg, iv. It is filed as ADME, organism-based. To be noted: in vivo.
In a further data set the test system is Caco-2. Nature of the data set: Cytotoxicity against human Caco-2 cells assessed as reduction in cell viability at 0.390625 to 100 uM incubated for 72 hrs by MTT assay. The data set is classed as cell-based. To be noted: caco-2, 72 h, dose 0.390625-100 µM. For orientation: Tetrazolium dyes change colour on reduction, which living cells bring about.
A short description of data set [16]: Tmax in Sprague-Dawley rat at 2 mg/kg, iv. To be noted: in vivo. The data set is classed as ADME, organism-based.
Data set [17] can be described thus: Cmax in Sprague-Dawley rat at 2 mg/kg, iv. Further details: route intravenous, dose 2 mg/kg. To be noted: in vivo. It is filed as ADME, organism-based.

Turning to `O=C(O)CCCc1cn(CCCCN2CCN(c3ccccc3Cl)CC2)c2ccccc12`, the pIC50 in [1] was 6.72; in data set [2], under 6.00; in data set [3], under 6.00; in [4], under 5.30.

In the case of `COc1ccccc1N1CCN(CCCCCn2cc(CCCC(=O)O)c3ccccc32)CC1`, the negative-log IC50 (pIC50) in [1] was 6.42; in data set [2], 8.01; in [3] it was under 6.00; in data set [4], under 5.30.

Regarding `O=C(O)CCCc1cn(CCCCCN2CCN(c3ccccc3Cl)CC2)c2ccccc12`, the pIC50 is 6.48 in data set [1], under 6.00 in [2], 7.48 in data set [3] and 6.21 in data set [4].

As for `CC(C)(C)NC(=O)[C@H]1CC[C@H]2[C@@H]3CC[C@H]4NC(=O)C=C[C@]4(C)[C@H]3CC[C@]12C` [FINASTERIDE], in data set [4], the negative logarithm of the IC50 (pIC50) is 6.23.

In the case of `CCOc1ccccc1OCCN[C@H](C)Cc1ccc(OC)c(S(N)(=O)=O)c1` [TAMSULOSIN], the pIC50 in data set [1] was 9.82; in [2], 8.38.

Consider `COc1ccccc1N1CCN(CCCCn2cc(CCCC(=O)O)c3ccccc32)CC1`, for which the AUC(0-inf) in data set [5] was 0.0305 µg·h/mL; in data set [8], 0.0269 µg·h/mL. For the same compound, the bioavailability in data set [6] is 8.83%. Further, the results for the MRT in data set [7] and in data set [12] were 1.94 h and 1.49 h, respectively. Moreover, the half-life in [9] is 5.75 h; in data set [15], 11 h. In addition, the negative logarithm of the IC50 (pIC50) in [1] was 6.72; in data set [2], under 6.00; in [3], 7.68; in data set [4] it was 6.25. The maximum concentration (Cmax) in [10] was found to be 0.0896 µg/mL; in data set [17], 0.0379 µg/mL. For the same compound, the exposure AUC(0-t) in data set [11] is 0.0175 µg·h/mL; in data set [13], 0.0123 µg·h/mL. Also, the Activity entry with Huh-7 and with Caco-2 was “Non-Toxic” throughout. The time to peak (Tmax) in [14] and in data set [16] was 3 min throughout.

Take `COc1ccccc1N1CCN(CCCn2cc(CCCC(=O)O)c3ccccc32)CC1`: the pIC50 was 6.79 in [1], under 6.00 in [2], under 6.00 in data set [3] and under 5.30 in [4].
